Measurements reported in patent publication US10413581B2, “Combination, composition, and method of administering the combination or composition to animals” (Phibro Animal Health Corporation, priority 2014, dated 2019).

Legend:
coccidia = experiment: Example 4: compatibility of the composition with Salinomycin; feed conversion, weight gain, oocysts, coccidial challenge; assay type: in vivo, broilers; details: between days 21 and 28; composition 250 ppm, Salinomycin 66 ppm
Protocol: In this particular embodiment, the compatibility of the Yucca schidigera and Quillaja saponaria composition with Salinomycin was evaluated. The treatments included embodiments where no feed additive was provided (e.g., none of the composition added), where 250 ppm of the composition was provided, where 66 ppm of Salinomycin was provided, and embodiments where 250 ppm of the composition and 66 ppm of Salinomycin were provided in combination. The anticoccidial effects and immune potentiation of each test embodiment were evaluated and the results are provided graphically in FIGS. 20-26.
A challenge study was also conducted to evaluate the potential for immune potentiation. Similar to the challenge study described in Example 3, 5 birds were removed from each pen after 21 days. These birds were challenged with a three-species coccidial challenge and then placed in batter cages for seven days. On day 28, the birds were killed and lesion scored.

E. maxima [1] = experiment: Example 8: lesion score and OPG, E. maxima; assay type: in vivo, Cobb 500 male chicks; details: Composition 250 ppm, Salinomycin 66 ppm, alone or combined
Source text: (§1) On Days 18, 28, and 35, three birds per pen were sacrificed and coccidial lesion scored for degree of E. acervulina, E. maxima and E. tenella infection (Examples 6 and 7). The system of Johnson and Reid (1970) wherein 0 is normal and 1, 2, 3, or 4 indicate increasing severity of infection were used for lesion scoring. In Example 8, three birds per pen were sacrificed on days […] and coccidial lesion scored for degree of E. acervulina, E. maxima and E. tenella infection. The system of Johnson and Reid (1970) wherein 0 is normal and 1, 2, 3, or 4 indicate increasing severity of infection were used for lesion scoring.
(§2) On Days 18 and 28 fresh fecal samples were collected from each pen (Examples 6 and 7). On Days 18 and 28, fresh fecal samples were collected from each pen (Example 8). These representative samples were tested to determine the degree of oocysts shedding/cycling. Oocysts per gram were determined for each sample.
(§3) In this example, the ability of exemplary compositions to improve bird performance under challenge conditions was determined. In some embodiments, an exemplary composition was administered alone and in other embodiments, it was administered in combination with Salinomycin. In some embodiments, the birds were not fed any additives (that is, neither the composition nor Salinomycin) and in other embodiments the birds were solely fed Salinomycin. The birds used in this example were exposed to ionophore tolerant coccidia in the litter of all pens, beginning from day of age. […] The results from this example further illustrate that the disclosed compositions and combinations are effective to better control coccidia that are partially resistant to ionophores.

E. acervulina [2] = experiment: Example 5: birds infected with E. acervulina field isolate; performance, lesion score, OPG; assay type: in vivo
Protocol: In this particular embodiment, the effects of the composition and Salinomycin, independently, were evaluated. Lower amounts of the composition were tested, including the amount that is typically used by those in the art (i.e., 125 ppm). Salinomycin treatments used 44 ppm or 66 ppm Salinomycin. Non-infected birds that received no medication were used as a control (entry 1 of Table 2, below). Also, some birds were administered 66 ppm of Salinomycin, but where not infected (entry 7 of Table 2, below). The remaining birds were infected with 200,000 oocysts of field isolate of E. acervulina, which is a species of Eimeria that causes coccidiosis in poultry, particularly […] poultry, and subjected to the treatments described below in entries 2-6 of Table 2.

E. acervulina [3] = experiment: Example 8: lesion score and OPG, E. acervulina; assay type: in vivo, Cobb 500 male chicks; details: Composition 250 ppm, Salinomycin 66 ppm, alone or combined
Source text: as §1, §2, §3

E. tenella [4] = experiment: Example 5: birds infected with E. tenella field isolate; performance, lesion score, OPG; assay type: in vivo
Source text: In another test embodiment, the effects of lower amounts of NFP (e.g., 100 ppm, 125 ppm, and 150 ppm) on birds infected with E. tenella, a species of Eimeria that causes hemorrhagic cecal coccidiosis in poultry, particularly young poultry. Infected birds were infected with 100,000 oocysts of field isolate of E. tenella. The infected birds were subjected to the treatments described below in entries 2-6 of Table 4.

E. maxima [5] = experiment: Example 5: birds infected with E. maxima field isolate; performance, lesion score, OPG; assay type: in vivo
Source text: Similar protocols were used to determine the effects of lower amounts of NFP (e.g., 100 ppm, 125 ppm, and 150 ppm) on birds infected with E. maxima, a common form of Eimeria found in commercial broilers. Infected birds were infected with 37,500 oocysts of field isolate of E. maxima. The infected birds were subjected to the treatments described below in entries 2-6 of Table 3.

E. tenella [6] = experiment: Example 8: lesion score and OPG, E. tenella; assay type: in vivo, Cobb 500 male chicks; details: Composition 250 ppm, Salinomycin 66 ppm, alone or combined
Source text: as §1, §2, §3

[7] = system: ionophore tolerant coccidia; experiment: Example 8 floor pen study, ionophore tolerant coccidia in the litter: performance, mortality, total lesion score, total OPG; assay type: in vivo, Cobb 500 male chicks
Source text: In the embodiments described below in Examples 6-8, the following conditions and methods were utilized. The test house was divided into pens of equal size, arranged along a central aisle. Subtracting out for equipment, the initial bird density was ˜0.84 square ft/bird. Each pen had 5 feet high side walls with bottom 1½ feet being of solid wood to prevent bird migration. All flooring of each pen had approximately 4 inches of built-up litter.
The temperature of the building was monitored. Environmental conditions during the trial (temperature) were appropriate (optimum) to the age of the animals Illumination was provided by fluorescent bulbs placed above the pens. The lighting scheme was 24 hours of light per day.
The diets were provided ad libitum in one tube-type feeder per pen. From day 1 until day 7, feed will also be supplied on a tray placed directly on the litter of each pen.
Standard floor pen management practices were used throughout the experiment. Animals and housing facilities were inspected twice daily, observing and recording the general health status, constant feed and water supply as well as temperature, removing all dead birds, and recognizing unexpected events.
All feeds were fed as crumbles/pellets. Quantities of all basal feed and test articles used to prepare treatment batches were documented. Each batch of feed was mixed and bagged separately. Each bag was identified with the study number, date of mix, type of feed, and the correct treatment number. Complete records of feed mixing, and test article inventories were maintained. A sample from the beginning, middle, and end of each treatment feed were mixed to form a composite sample. This sample of each treatment was retained until study end. All feed was weighed by pen. Starter feed was fed from Day 0 to 18. On Day 18, non-consumed starter was weighed and discarded. Grower feed was issued and fed until Day 28. On Day 28, non-consumed grower was weighed and discarded. Finisher feed was issued and fed until Day 42. On Day 42, non-consumed finisher was weighed and discarded.
Day of hatch male chicks were obtained from Cobb-Vantress hatchery, Cleveland, Ga. The strain was Cobb 500. Breeder flock was recorded. 1760 chicks were allocated to the study. At the hatchery, the birds received routine vaccinations. The birds were sexed at the hatchery. In Example 7, all chicks were spray vaccinated with conventional doses of Coccivac-B. Only healthy appearing chicks were used in the study. In examples 6 and 7, fifty-five males were allocated to each treatment pen by blocks. In example 8, fifty-two males were allocated to each treatment pen by blocks. No birds were replaced during the course of the study. Number and disposition of all birds not used for allocation were documented. Bird weights (kg) by pen were recorded at study initiation, Day 18, 28, and termination (Day 42).
as §1
On Days 18 and 28 fresh fecal samples were collected from each pen (Examples 6 and 7). […] These representative samples were tested to determine the degree of oocysts shedding/cycling. Oocysts per gram were determined for each sample.
In this example, the ability of exemplary compositions to improve bird performance under challenge conditions was determined. […]

[8] = 44 ppm, birds infected with 200,000 oocysts of E. acervulina
[9] = 66 ppm, entry 7 of Table 2 (not infected)
[10] = 44 ppm, birds infected with 100,000 oocysts of E. tenella
[11] = 66 ppm, entry 7 of Table 4 (entries 2-6 infected)
[12] = 44 ppm, birds infected with 37,500 oocysts of E. maxima
[13] = 66 ppm, entry 7 of Table 3 (entries 2-6 infected)
[14] = Day 18, Composition 250 ppm, Salinomycin 66 ppm, alone or combined
[15] = Day 28, Composition 250 ppm, Salinomycin 66 ppm, alone or combined
[16] = Day 42, Composition 250 ppm, Salinomycin 66 ppm, alone or combined

Q: With `CC[C@@H](C(=O)[C@@H](C)[C@@H](O)[C@H](C)[C@@H]1O[C@@H]([C@@H](CC)C(=O)O)CC[C@@H]1C)[C@H]1O[C@]2(C=C[C@@H](O)[C@]3(CC[C@@](C)([C@H]4CC[C@](O)(CC)[C@H](C)O4)O3)O2)[C@H](C)C[C@@H]1C` [Salinomycin] as the molecule, how does the “susceptibility of broilers to coccidial challenge” value (coccidia) read?
A: increased the susceptibility

Q: What about the “Lesion Scores E.M.” value (E. maxima [1]; Day 18) of the same molecule?
A: 0.7a

Q: And the “OPG E.M.” value (E. maxima [1]; Day 21)?
A: 1910bc oocysts per gram

Q: What about the “Lesion Scores E.M.” value (E. maxima [1]; Day 28) of the same molecule?
A: 0.5b

Q: What about the “OPG E.M.” value (E. maxima [1]; Day 28) of the same molecule?
A: 955b oocysts per gram

Q: What about the “Adj. Fd. Conv.” value (E. acervulina [2]; [8]) of the same molecule?
A: 1.946 b

Q: What about the “Avg. Wt. Gain” value (E. acervulina [2]; [8]) of the same molecule?
A: 0.241 ab

Q: And the “Feed Consum.” value (E. acervulina [2]; [8])?
A: 2.804 a

Q: What about the “Lesion Score” value (E. acervulina [2]; [8]) of the same molecule?
A: 1.3 c

Q: What about the OPG (E. acervulina [2]; [8]) of the same molecule?
A: 2734 oocysts per gram of fecal material

Q: What about the “Adj. Fd. Conv.” value (E. acervulina [2]; [9]) of the same molecule?
A: 1.948 b

Q: What about the “Avg. Wt. Gain” value (E. acervulina [2]; [9]) of the same molecule?
A: 0.231 b

Q: What about the “Feed Consum.” value (E. acervulina [2]; [9]) of the same molecule?
A: 2.692 ab

Q: And the “Lesion Score” value (E. acervulina [2]; [9])?
A: 1.4 c

Q: What about the OPG (E. acervulina [2]; [9]) of the same molecule?
A: 217 oocysts per gram of fecal material

Q: What about the “Lesion Scores E.A.” value (E. acervulina [3]; Day 18) of the same molecule?
A: 1.3a

Q: And the “OPG E.A.” value (E. acervulina [3]; Day 21)?
A: 2915bc oocysts per gram

Q: What about the “Lesion Scores E.A.” value (E. acervulina [3]; Day 28) of the same molecule?
A: 1.2ab

Q: What about the “OPG E.A.” value (E. acervulina [3]; Day 28) of the same molecule?
A: 3819b oocysts per gram

Q: What about the “Adj. Fd. Conv.” value (E. tenella [4]; [10]) of the same molecule?
A: 1.929 ab

Q: What about the “Avg. Wt. Gain” value (E. tenella [4]; [10]) of the same molecule?
A: 0.242 ab

Q: And the “Feed Consum.” value (E. tenella [4]; [10])?
A: 2.787 a

Q: What about the “Lesion Score” value (E. tenella [4]; [10]) of the same molecule?
A: 0.8 c

Q: And the OPG (E. tenella [4]; [10])?
A: 800 oocysts per gram of fecal material

Q: What about the “Adj. Fd. Conv.” value (E. tenella [4]; [11]) of the same molecule?
A: 1.863 bc

Q: And the “Avg. Wt. Gain” value (E. tenella [4]; [11])?
A: 0.245 ab

Q: What about the “Feed Consum.” value (E. tenella [4]; [11]) of the same molecule?
A: 2.671 a

Q: And the “Lesion Score” value (E. tenella [4]; [11])?
A: 0.6 c

Q: And the OPG (E. tenella [4]; [11])?
A: 150 oocysts per gram of fecal material

Q: What about the “Adj. Fd. Conv.” value (E. maxima [5]; [12]) of the same molecule?
A: 2.021 b

Q: What about the “Avg. Wt. Gain” value (E. maxima [5]; [12]) of the same molecule?
A: 0.225 b

Q: And the “Feed Consum.” value (E. maxima [5]; [12])?
A: 2.718 ab

Q: And the “Lesion Score” value (E. maxima [5]; [12])?
A: 1.3 cd

Q: And the OPG (E. maxima [5]; [12])?
A: 4435 oocysts per gram of fecal material

Q: What about the “Adj. Fd. Conv.” value (E. maxima [5]; [13]) of the same molecule?
A: 1.960 b

Q: What about the “Avg. Wt. Gain” value (E. maxima [5]; [13]) of the same molecule?
A: 0.230 b

Q: What about the “Feed Consum.” value (E. maxima [5]; [13]) of the same molecule?
A: 2.647 bc

Q: What about the “Lesion Score” value (E. maxima [5]; [13]) of the same molecule?
A: 1.2 days

Q: And the OPG (E. maxima [5]; [13])?
A: 167 oocysts per gram of fecal material

Q: And the “Lesion Scores E.T.” value (E. tenella [6]; Day 18)?
A: 0.5b

Q: And the “OPG E.T.” value (E. tenella [6]; Day 21)?
A: 5528a oocysts per gram

Q: And the “Lesion Scores E.T.” value (E. tenella [6]; Day 28)?
A: 0.1b

Q: And the “OPG E.T.” value (E. tenella [6]; Day 28)?
A: 3065ab oocysts per gram

Q: What about the “Adj. FCR” value [7, 14] of the same molecule?
A: 1.420ab

Q: What about the “Feed Intake” value [7, 14] of the same molecule?
A: 24.76a

Q: What about the “Lesion Scores Total” value [7, 14] of the same molecule?
A: 0.8b

Q: And the “Wt. Gain” value [7, 14]?
A: 0.294a kg

Q: And the “OPG Total” value ([7]; Day 21, Composition 250 ppm, Salinomycin 66 ppm, alone or combined)?
A: 10352b oocysts per gram

Q: What about the “Adj. FCR” value [7, 15] of the same molecule?
A: 1.619b

Q: And the “Feed Intake” value [7, 15]?
A: 74.09a

Q: And the “Lesion Scores Total” value [7, 15]?
A: 0.6b

Q: What about the “OPG Total” value [7, 15] of the same molecule?
A: 7839b oocysts per gram

Q: What about the “Wt. Gain” value [7, 15] of the same molecule?
A: 0.875a kg

Q: What about the “Adj. FCR” value [7, 16] of the same molecule?
A: 1.773bc

Q: What about the “Feed Intake” value [7, 16] of the same molecule?
A: 175.68a

Q: What about the Mortality [7, 16] of the same molecule?
A: 6.5a

Q: And the “Wt. Gain” value [7, 16]?
A: 2.114a kg

Q: What about the performance ([7]; day 18, Salinomycin alone) of the same molecule?
A: did not improve performance
